Measured values from patent US11634452B2, “Compounds for treating neurodegenerative disorders” (ETHNODYNE, priority 2017, dated 2023).

Columns and labels:
[1] = tested on: primary rat cortical neurons injured with glutamate; test: Effect in rat primary cortical neurons after glutamate injury; format: cell-based
Method: A., et al., 1999. J Neurosci 19: 2455-2463 and Callizot.
The medium was changed every 2 days. The cortical neurons were intoxicated with glutamate solution.
The following conditions were assessed: • Control (culture medium) • + glutamate (40 μM, 20 min) • + glutamate (40 μM, 20 min)+CR777 (at each concentration)

[2] = tested on: primary rat motor neurons injured with glutamate; test: Primary motor neuron culture survival after glutamate exposure (in vitro ALS model); format: cell-based; conditions: CR777 between 1 nM and 10 nM, added 1 h before glutamate (5 μM, 20 min, then 48 h)
Method: The aim of this study was to study the effect of CR777 on primary motor neuron culture from rat spinal cord (SC) injured by glutamate exposure (a well validated in vitro ALS model and model of motor neuron diseases).
Rat SC motor neurons were cultured as described by Martinou et al., Neuron. 1992 April; 8(4):737-44 and Wang et al., Hum Mol Genet. 2013 Dec. 1; 22(23):4706-19. Briefly, pregnant female rats (Wistar, Janvier labs) of 14 days gestation were killed by cervical dislocation. […] Cells were then centrifuged at 180 g for 10 min at +4° C. on a layer of BSA (3.5%) in L15 medium. […] The medium was changed every day.
The following conditions were assessed: • Control • + glutamate (5 μM 20 mn then 48 h) • + glutamate (5 μM 20 mn then 48 h)+CR777 1 pmol/L • + glutamate (5 μM 20 mn then 48 h)+CR777 10 pmol/L • + glutamate (5 μM 20 mn then 48 h)+CR777 100 pmol/L • + glutamate (5 μM 20 mn then 48 h)+CR777 1 nmol/L • + glutamate (5 μM 20 mn then 48 h)+CR777 10 nmol/L • + glutamate (5 μM 20 mn then 48 h)+CR777 100 nmol/L • + glutamate (5 μM 20 mn then 48 h)+CR777 1 μmol/L • + glutamate (5 μM 20 mn then 48 h)+CR777 10 μmol/L […]
For each condition, 6 wells were assessed, 30 pictures per well were taken using ImageXpress (Molecular Devices) with 20× magnification, to assess motor neuron survival (MAP-2). […]

## CC1=C(CO)C(=O)O[C@@H]([C@@H](C)[C@H]2CCC3C4C[C@H](SC[C@H](NC(=O)CC[C@@H](N)C(=O)O)C(=O)NCC(=O)O)[C@]5(O)[C@@H](O)C=CC(=O)[C@]5(C)C4CC[C@@]32C)C1 (stereo partly shown) [CR777]
[1]; CR777 1 pmol/L to 10 μmol/L overall, glutamate 40 μM, 20 min
  neurite network: moderate neuroprotective effect
[1]; CR777 100 pM, added 1 h before glutamate (40 μM, 20 min) and let for 48 h
  neuron survival: significantly protected neurons from death
[1]; CR777 from 1 nM up to 1 μM, glutamate 40 μM, 20 min
  neuron survival: full protection
[1]; glutamate 40 μM, 20 min
  concentration at which the maximal effect on neurite network was observed: 1 µM
[1]; glutamate 40 μM, 20 min, dose dependent
  concentration at which the maximal effect on neuron survival was reached: 10 nM
[1]; only the doses of 10, 100 pM and 1 μM, glutamate 40 μM, 20 min
  neurite network: significantly protected the neurite network
[2]
  motor neuron survival: moderate and significant protective effect
